Data on one molecule can be found in patent publication US20240174684A1, “INHIBITORS OF cGAS ACTIVITY AS THERAPEUTIC AGENTS” (BELLBROOK LABS, LLC, priority 2021, published 2024).

The structures appear in SMILES notation. In brackets after ≈: the same amount, converted by molar mass. Read-outs that look alike come from different tables or passages of the source. Where only a bound is given, the exact number is not on record here.

Data set [1] in a line: Kinetic aqueous solubility (KSOL) in PBS, pH 7.4. The class given is physicochemical. The conditions noted are these: aqueous buffer, kinetic from dmso stock.
In the next data set the target is cGAS (Homo sapiens, UniProt Q8N884). Description: Transcreener cGAS enzymatic assay (FP). It counts as biochemical. In outline:
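Human cGAS (30 nm) inhibition, 60 min reactions, FP read-out, standard conditions 100 μM ATP and GTP plus 62.5 nM bp ISD. Also run at 1 mM ATP and GTP (physiological), with 200 μM MnCl2, and with mouse cGAS under standard conditions; IC50 reported.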

Data set [2] can be described thus: Metabolic stability in human hepatocytes. The class given is in vitro ADME. The conditions noted are these: read-out: Human MS Stability t1/2. As for the experimental part:
(§1) ADME studies: Compound A and the compounds of the disclosure were tested for aqueous solubility (KSOL), metabolic stability (human and mouse […]) and permeability (Caco-2 and/or MDR1-MDCK cells) to provide an initial indication of oral bioavailability.
(§2) The favorable physicochemical properties are reflected in promising results in in vitro ADME tests. […] Metabolic stability, which was routinely measured with mouse and human hepatocytes, is outstanding, with t, greater than 2 hours for all of the compounds of the disclosure in which it has been measured. Cell permeability was measured using MDCK cells expressing human MDR1 (P-glycoprotein) to assess passive permeability as well as active transport out of the cell. […] Numerous compounds in Table 1 meet these permeability criteria, which is consistent with their design for TPSA <140 Å^2 and increased lipophilicity.
(§3) The MDCK-MDR1 permeability A ->B is shown in Table 2 below, where A represents 5-10 cm/s×10^−6; B represents 1-5 cm/s×10^−6; and C represents <1 cm/ss×10^−6. The metabolic stability half time, in both mouse and human hepatocytes, is also shown in Table 2 below, where A′ represents 100-200 minutes; B′ represents 200-300 minutes; and C′ represents >300 minutes.

A further data set deals with mouse cGAS (Mus musculus, UniProt Q8C6L5). Description: Transcreener cGAS enzymatic assay with mouse cGAS. It counts as biochemical. The conditions noted are these: standard conditions, read-out: IC50 with mcGAS. Here is the method: Structural, biochemical and biophysical analysis and selectivity profiling: Potency and MOA studies, including Mn^2+ sensitivity, were performed using the Transcreener cGAS enzymatic assay, which is manufactured at BellBrook Labs (Fitchburg, Wisconsin, USA). This homogenous cGAS enzymatic assay was developed with fluorescence polarization (FP) and time-resolved Forster resonance energy transfer (TR-FRET) readouts, as described in International Patent Publication WO 2020/142729, incorporated by reference herein in its entirety. Plates are read on a PHERAstar FSX multimode reader (BMG). The compounds of the disclosure were tested for inhibition of cGAS ([…]) using this cGAS enzymatic assay under standard conditions (100 μM ATP and GTP, 62.5 nM bp ISD, 60 minute reactions), high ATP and GTP (1 mM) to mimic physiological conditions, in the presence of 200 μM MnCl2, and with mouse cGAS under standard conditions.
Potency with mcGAS is important for vivo efficacy studies and represents a challenge for lead development because mcGAS shares only 57% amino acid identity with human enzyme and there are significant functional differences.

Data set [3] is described as follows: Cytotoxicity, CellTiter Glo (ATP levels) and Presto Blue (reducing equivalents). The conditions noted are these: CellTiter Glo, Presto Blue, dose response. It counts as cell-based. Here is the method: (§4) The reporter gene assays were used to assess off-target activity with IRF30Luc (RIG-1) or NFKB (TLR4); CellTiter Glo (ATP levels) and Presto Blue (reducing equivalents) were used to assess cytotoxicity; all assays were performed in dose response mode. […] The inventors recently began using human PBMCs to assess cellular potency in a more physiologically relevant context.
(Cellular ATP, detected with luciferase, serves as a proxy for viable cell number.)

For another data set, the system named is TLR4 pathway. Description: Reporter gene assay NFKB (TLR4). The conditions noted are these: at concentrations above 25 μM. It counts as cell-based. Here is the method:
CETSA was also used to confirm that the compounds are binding to cGAS in cells; THP-1 cells are used for this analysis. Compounds were tested in dose response mode by incubating with cells for 1.5 hours at 37° C., followed by pelleting and re-suspending in PBS, heating to 51.5° C. for 3 min and cooling to room temp. Cells were then lysed, debris, including denatured cGAS, was pelleted and the supernatant was analyzed for soluble cGAS by Western Blot using anti-cGAS primary Ab (Cell Signaling). Band intensity was analyzed using Image J software. Stimulation with cGAMP directly activates STING, circumventing cGAS; this was used to determine if compounds had effects on downstream components of cGAS/STING signaling. The IFN-6 ELISA was used as the primary measure of cellular potency and selectivity (Table 3) and used the reporter gene assays for assessing off-target activity with other pattern recognition receptors.
as §4
For orientation: A reporter such as luciferase makes a cellular process visible.

Data set [4] can be described thus: Metabolic stability in mouse hepatocytes. It counts as in vitro ADME. The conditions noted are these: read-out: Mouse MS Stability t1/2. Here is the method: as §1, §2, §3

Chain of cGAS (Q8N884 whole entry): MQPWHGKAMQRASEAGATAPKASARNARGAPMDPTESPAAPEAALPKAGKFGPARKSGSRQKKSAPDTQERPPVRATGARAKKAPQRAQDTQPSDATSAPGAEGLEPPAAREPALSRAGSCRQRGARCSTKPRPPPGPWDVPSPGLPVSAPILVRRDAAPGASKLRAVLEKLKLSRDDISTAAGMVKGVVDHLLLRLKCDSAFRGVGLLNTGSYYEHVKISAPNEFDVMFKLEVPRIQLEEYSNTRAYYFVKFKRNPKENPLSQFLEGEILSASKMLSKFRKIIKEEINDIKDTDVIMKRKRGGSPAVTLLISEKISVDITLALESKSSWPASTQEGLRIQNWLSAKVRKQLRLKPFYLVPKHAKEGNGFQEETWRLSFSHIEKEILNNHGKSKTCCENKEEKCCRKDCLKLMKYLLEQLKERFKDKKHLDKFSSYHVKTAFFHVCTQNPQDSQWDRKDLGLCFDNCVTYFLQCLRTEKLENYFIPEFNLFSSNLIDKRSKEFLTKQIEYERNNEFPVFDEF
Chain of mouse cGAS (Q8C6L5 whole entry): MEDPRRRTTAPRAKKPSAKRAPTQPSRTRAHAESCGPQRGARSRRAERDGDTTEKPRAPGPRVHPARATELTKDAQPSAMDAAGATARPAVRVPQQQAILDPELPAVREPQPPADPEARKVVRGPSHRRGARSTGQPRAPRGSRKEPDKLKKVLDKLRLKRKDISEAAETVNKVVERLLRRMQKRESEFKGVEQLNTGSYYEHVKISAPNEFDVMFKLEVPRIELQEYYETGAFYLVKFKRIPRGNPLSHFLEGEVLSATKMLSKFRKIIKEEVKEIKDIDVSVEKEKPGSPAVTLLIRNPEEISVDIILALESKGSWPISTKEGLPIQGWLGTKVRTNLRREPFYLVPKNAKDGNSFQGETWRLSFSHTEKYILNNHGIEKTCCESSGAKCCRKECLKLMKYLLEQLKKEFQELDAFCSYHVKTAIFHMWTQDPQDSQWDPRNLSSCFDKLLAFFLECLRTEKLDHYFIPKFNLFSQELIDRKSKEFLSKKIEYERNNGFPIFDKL

What is called solubility (kinetic) is the concentration staying in solution when a stock, usually in DMSO, is diluted into the medium. The term IC50 denotes the concentration that inhibits the measured activity by half. `Cc1nc(N2C[C@@H](CC(=O)Nc3ccc(-c4ccccc4)cc3)C[C@H]2C(=O)O)c2oc3ccccc3c2n1` [Compound 5, (2S,4R)-4-(2-([1,1′-biphenyl]-4-ylamino)-2-oxoethyl)-1-(2-methylbenzofuro[3,2-d]pyrimidin-4-yl)pyrrolidine-2-carboxylic acid] had a solubility (kinetic) in data set [1] of 8 µM (≈ 4.05 µg/mL). The IC50 on cGAS (high ATP and GTP (1 mM) to mimic physiological conditions, read-out: IC50 FP Physiological) is 500 to 1000 nM; at cGAS (standard conditions: 100 μM ATP and GTP, 62.5 nM bp ISD, 60 minute reactions, read-out: IC50 FP Standard), 50 to 100 nM; on mouse cGAS it was 4230 nM. Besides, the half-life was 1.67 to 3.33 h in data set [2] and greater than 5 h in data set [4]. Besides, the Concentration showing cytotoxicity entry in data set [3] is recorded as “above 25 μM”. Besides, the “Off-target activity with the TLR4 pathway” value with TLR4 pathway was “some off-target activity”.
